IC50 data for 14 compounds are collected here from ChEMBL document CHEMBL1135058, “New anti-malarial compounds from database searching” (Bioorg Med Chem Lett, 2002).

pIC50: −log10 of the molar value.

A word on the IC50: it is the concentration that gives 50% inhibition. One may read the pIC50 as the negative decadic logarithm of the IC50, by convention in mol/L.

One assay concerns Plasmodium falciparum. Put plainly: In vitro inhibition as IC50 against Plasmodium falciparum by [3H]hypoxanthine uptake. The assay is classed as functional, organism-based.
Conditions: not given; call rule not given here
For `CCN(CC)CCCC(C)Nc1ccnc2cc(Cl)ccc12.O=P(O)(O)O.O=P(O)(O)O` (centres undefined) [CHLOROQUINE PHOSPHATE], the IC50 came out at 0.16 µg/mL.

Still in this assay, the particulars now being: Plasmodium falciparum; read-out: IC50.
For `COc1cc(C(=O)C(O)c2cc(OC)c(OC)c(OC)c2)cc(OC)c1OC` (centres undefined), the pIC50 is 4.70.
The same measure, in the same setting: for `CCN(CC)c1ccc(NCC(O)c2cc(Cl)ccc2OC)cc1` (centres undefined) the value was 5.40; for `COc1cc(C(c2c(O)oc3ccccc3c2=O)c2c(O)oc3ccccc3c2=O)cc(OC)c1OC`, less than 5.70; for `COc1cccc(C(O)C2=CC(=O)c3ccccc3C2=O)c1OC` (centres undefined), 5.34.
Turning to `O=C1C=CC(=C(c2ccc(O)cc2)c2c(Cl)c(Cl)c(Cl)c(Cl)c2C(=O)O)C=C1`, the negative logarithm of the IC50 (pIC50) was 4.70.
Consider `COc1ccc(/C(=N\O)c2nccc3cc(OC)c(OC)cc23)cc1OC`, for which the negative-log IC50 (pIC50) was 4.70.
On to `COc1cccc(CN2CCCN(Cc3cccc(OC)c3O)C2c2ccc(N(CCCl)CCCl)cc2C)c1O`, for which the pIC50 was 5.92.
Regarding `COc1ccccc1/C=C/C(=O)O` [COUMARINIC ACID METHYL ETHER], the negative-log IC50 (pIC50) is 5.52.
As to `COc1ccc(C2OCC3(O)C(c4ccc(OC)c(OC)c4)OCC23)cc1OC` (centres undefined), the pIC50 was 5.49.
The same measure, in the same setting: the same measure for `COc1ccc(CC(=O)c2c(O)c3c(c(CC=C(C)C)c2OC)OC(C)(C)CC3)cc1`: 5.21.
As to `COc1ccc(C(O)C2c3c(cc4c(c3OC)OCO4)CCN2C)c(CO)c1OC` (centres undefined), the pIC50 is 5.10.
Still for that read-out and setting: for `Cc1cc2c3c(c1-c1c(C)cc4c(C(C)C)c(O)c(O)c(C=N)c4c1O)OC1=C4C(=O)C(O)C(C(C)C)c5cc(C)c(-c6c(C)cc7c(C(C)C)c(O)c(O)c(C=O)c7c6O)c(c54)OC(=C3C(=O)C(O)C2C(C)C)N1` (centres undefined) the value was 5.18.

In a further assay the test system is Plasmodium falciparum. The assay is described as follows: In vitro inhibition as IC50 against Plasmodium falciparum by [3H]hypoxanthine uptake; Not active. The assay is classed as functional, organism-based.
Conditions: not given
For the compound `Cc1ccc(C(C)C)c(OP(=S)(S)Oc2cc(C)ccc2C(C)C)c1`, the IC50 result was “Not Active”.
